Patent publication US7314864B1, “Humanin, a polypeptide suppressing neuronal death” (Keio University, priority 1999, dated 2008)
No end group written: not given here.

What was measured:
[1] = tested on: F11 cells transfected with V642I APP cDNA; experiment: V642I APP-induced F11 cell death, trypan blue exclusion assay; format: cell-based; conditions: for cell mortality (%): V642I APP cDNA, treated with 10 μM sHN polypeptides, 72 hours, mean ±S.D.
Method: (§1) F11 cells (Platika, D. et al. (1985) Proc. Natl. Acad. Sci. U.S.A. 82, 3499-3503; Yamatsuji, T. et al. (1996) Science 272, 1349-1352) were cultured in HamF-12 media containing 18% fetal bovine serum (FBS) and antibiotics. 7×10^4/well of F11 cells were seeded into a 6-well plate; cultured in HamF-12 containing 18% FBS for 12 to 16 hours; transfected 3 hours with plasmids encoding FAD genes and plasmids encoding HN (pHN, and such) by lipofection in the absence of serum (1 μg of FAD cDNA expression plasmid, 1 μg of HN cDNA expression plasmid, 4 μl of LipofectAMINE, 8 μl of Plus reagent); and then, were cultured for 2 hours in HamF-12 media containing 18% FBS. Then, culture media were exchanged with HamF-12 media containing 10% FBS; and the cells were cultured for additional 67 hours. 72 hours after transfection, cell death was measured by trypan blue exclusion assay. Experiments using synthetic HN polypeptides were conducted as follows: F11 cells (at 7×10^4/well in a 6-well plate) were transfected 3 hours with FAD genes in the absence of serum, as mentioned above; after cultivation for 2 hours in HamF-12 media containing 18% FBS, the cells were cultured for 67 hours in HamF-12 media containing 10% FBS with various concentrations of HN polypeptides; and cell death was measured by trypan blue exclusion assay. ALS-associated mutant cDNAs of SOD1 were also similarly transfected, and examined for their neurotoxicity.
(§2) Trypan blue exclusion assay was performed as follows. Without prewashing, the cells were suspended with gentle pipetting into a serum-free media. 50 μl of 0.4% trypan blue solution (Sigma, Cat. #T-8154) were added (final concentration of 0.08%) to 200 μl cell suspension, and the suspension was mixed at room temperature. Within 3 minutes of the trypan blue solution addition, stained cells were counted. Cell mortality was determined [100-cell survival rate (%)] based on the stained cell count. LDH assay was performed using a kit (LDH-Cytotoxic Test; Wako Pure Chemical Industries, Cat. #299-50601) by sampling 6 μl of media in which neurons were cultured. Calcein staining was performed as described in literature (Bozyczko-Coyne, D. et al. (1993) Journal of Neuroscience Methods 50, 205-216). Specifically, 6 μM Calcein-AM (3′, 6′-Di-(O-acetyl)-2′-7′-bis[N,N-bis(carboxymethyl)aminomethyl]fluorescein, tetraacetoxymethyl ester; Dojindo, Cat. #349-07201) was added to the neurons; and 30 minutes or longer after Calcein-AM treatment, fluorescence (ex=490 nm, em=515 nm) was observed by fluorescence microscopy, and measured by a spectrometer. Specific fluorescence was calculated by subtracting basal fluorescence from total fluorescence. Basal fluorescence was assigned to be the value calculated from linear trypan blue positivity-fluorescence intensity relationship, corresponding to 100% trypan blue positivity.

[2] = tested on: F11 cells transfected with FAD genes (V642I APP, NL-APP, M146L PS-1, N141I PS-2); experiment: FAD gene-induced F11 cell death, trypan blue exclusion assay; format: cell-based, rat/mouse hybrid; conditions: for suppression of FAD gene-induced cell death: 10 nM polypeptide; for neuroprotective activity relative to HNG: all types of cell death (FAD genes, Aβ)
Method: as §1, §2

[3] = tested on: primary cultured cortical neurons treated with Aβ1-43; experiment: Aβ1-43-induced cell death of primary cultured cortical neurons, trypan blue exclusion assay; format: cell-based; conditions: for effect on Aβ1-43-induced cell death: 25 μM Aβ1-43, confirmed by LDH release and Calcein staining
Method: Primary culture of mouse cortical neurons was performed in poly-D-lysine-coated 24-well plates (Sumitomo Bakelite) in the absence of serum and in the presence of N2 supplement, as described in literature (Ecksioglu, Y. Z. et al. (1994) Brain Res. 644, 282-90). The purity of neurons prepared according to the method was >98%. The prepared neurons (1.25×10^5/well, 250 μl media/well) were preincubated in the absence or presence of 10 nM or 10 μM sHN polypeptides for 16 hours; and were treated with 25 μM Aβ1-43 in the absence or presence of sHN polypeptides at the same concentrations for 24 to 72 hours. Since primary cultured neurons are damaged even by temporary dryness during medium exchange, treatment of the cells by Aβ1-43 was performed as follows. First, half of the volume of the old medium (125 μl) was discarded. Then, 125 μl of pre-warmed fresh medium containing 50 μM Aβ1-43 and sHN with a concentration indicated above were added to the culture.
as §2

[4] = tested on: primary cultured cortical neurons treated with Aβ1-43; experiment: Aβ1-43-induced cell damage of primary cultured cortical neurons, LDH release; format: cell-based, mouse; conditions: 25 μM Aβ1-43; 10 μM polypeptide
Method: Primary culture of mouse cortical neurons was performed in poly-D-lysine-coated 24-well plates (Sumitomo Bakelite) in the absence of serum and in the presence of N2 supplement, as described in literature (Ecksioglu, Y. Z. et al. (1994) Brain Res. 644, 282-90). The purity of neurons prepared according to the method was >98%. The prepared neurons (1.25×10^5/well, 250 μl media/well) were preincubated in the absence or presence of 10 nM or 10 μM sHN polypeptides for 16 hours; and were treated with 25 μM Aβ1-43 in the absence or presence of sHN polypeptides at the same concentrations for 24 to 72 hours. […]
(§3) Trypan blue exclusion assay was performed as follows. […] Within 3 minutes of the trypan blue solution addition, stained cells were counted. Cell mortality was determined [100-cell survival rate (%)] based on the stained cell count. […] Specifically, 6 μM Calcein-AM (3′, 6′-Di-(O-acetyl)-2′-7′-bis[N,N-bis(carboxymethyl)aminomethyl]fluorescein, tetraacetoxymethyl ester; Dojindo, Cat. #349-07201) was added to the neurons; and 30 minutes or longer after Calcein-AM treatment, fluorescence (ex=490 nm, em=515 nm) was observed by fluorescence microscopy, and measured by a spectrometer. Specific fluorescence was calculated by subtracting basal fluorescence from total fluorescence. […]

[5] = tested on: primary cultured neurons treated with etoposide; experiment: Etoposide toxicity on primary cultured neurons; format: cell-based, mouse; conditions: 20 μM etoposide; 10 μM polypeptide
Method: 25 μM Aβ1-43 was added to primary cultured cortical neurons in the presence (at indicated concentrations) or absence of sHN, sHNG, or sHNA. Addition of HN polypeptides was performed similarly to that described in FIG. 14. 72 hours after the initiation of Aβ treatment, cell death was measured by trypan blue exclusion assay. Primary cultured neurons treated similarly for 72 hours with 20 μM etoposide in the presence or absence of 10 μM sHN or HN derivatives were used as the positive controls in these experiments. Similar experiments were performed at least three times, and reproducible results were obtained. Mean ±S.D. values of three independent experiments are indicated in the graphs. […]
as §3

[6] = tested on: F11/EcR cells transfected with ecdysone-inducible Q79 plasmid; experiment: Polyglutamine Q79-induced F11/EcR cell death (ecdysone-inducible), trypan blue exclusion assay; format: cell-based; conditions: 1 μM polypeptide, 72 hours
Method: F11/EcR cell experiment using ecdysone was conducted as follows: F11/EcR cells were seeded at 7×10^4/well into a 6-well plate; cultured for 12 to 16 hours in HamF-12 media containing 18% FBS; and were similarly transfected in the absence of serum for 3 hours with 1 μg of ecdysone-inducible plasmid alone, or with 1 μg of HN-encoding plasmid, as mentioned above. After culturing for 12 to 16 hours in HamF-12 media containing 18% FBS, the cells were cultured for 2 hours in HamF-12 media containing 10% FBS, then ecdysone (Ponasterone) was added to the media (final concentration of 40 μM). Cell death was measured 72 hours after ecdysone treatment. Experiments using synthetic HN polypeptides were conducted as follows: cells were similarly transfected for 3 hours with FAD genes in the absence of serum; cultured for 12 to 16 hours in HamF-12 media containing 18% FBS; cultured for 2 hours in HamF-12 media containing 10% FBS and various concentrations of HN polypeptide; and then, 40 μM Ponasterone was added to the media. Cell death was measured by trypan blue exclusion assay after 72 hours from the ecdysone treatment. HD/SCA-associated Q79 cDNAs were also similarly transfected, and the neurotoxicity was tested.
Trypan blue exclusion assay was performed as follows. […] Within 3 minutes of the trypan blue solution addition, stained cells were counted. Cell mortality was determined [100-cell survival rate (%)] based on the stained cell count. […] Specifically, 6 μM Calcein-AM (3′, 6′-Di-(O-acetyl)-2′-7′-bis[N,N-bis(carboxymethyl)aminomethyl]fluorescein, tetraacetoxymethyl ester; Dojindo, Cat. #349-07201) was added to the neurons; and 30 minutes or longer after Calcein-AM treatment, fluorescence (ex=490 nm, em=515 nm) was observed by fluorescence microscopy, and measured by a spectrometer. Specific fluorescence was calculated by subtracting basal fluorescence from total fluorescence. Basal fluorescence was assigned to be the value calculated from linear trypan blue positivity-fluorescence intensity relationship, corresponding to 100% trypan blue positivity.

[7] = tested on: F11 cells transfected with SOD1 mutants (A4T, G85R, G93A); experiment: ALS-associated SOD1 mutant-induced F11 cell death, trypan blue exclusion assay; format: cell-based, rat/mouse hybrid; conditions: 100 μM polypeptide
Method: as §1, §3

[8] = tested on: F11/EcR cells transfected with ecdysone-inducible FAD gene plasmid; experiment: Ecdysone-induced FAD gene expression F11/EcR cell death, trypan blue exclusion assay; format: cell-based; conditions: 1 μM; NL-APP, V642I APP, M146L PS-1, N141I PS-2; ecdysone 72 hours
Method: F11/EcR cell experiment using ecdysone was conducted as follows: F11/EcR cells were seeded at 7×10^4/well into a 6-well plate; cultured for 12 to 16 hours in HamF-12 media containing 18% FBS; and were similarly transfected in the absence of serum for 3 hours with 1 μg of ecdysone-inducible plasmid alone, or with 1 μg of HN-encoding plasmid, as mentioned above. After culturing for 12 to 16 hours in HamF-12 media containing 18% FBS, the cells were cultured for 2 hours in HamF-12 media containing 10% FBS, then ecdysone (Ponasterone) was added to the media (final concentration of 40 μM). Cell death was measured 72 hours after ecdysone treatment. […] Cell death was measured by trypan blue exclusion assay after 72 hours from the ecdysone treatment. […]
as §3, with “spectrometer.” for “spectrometer. Specific fluorescence was calculated by subtracting basal fluorescence from total fluorescence.”

Compound	suppression of V642I APP-induced cell death ([1]; 10 nM polypeptide)	suppression of FAD gene-induced cell death [2]	neuroprotective activity relative to HNG [2]	effect on Aβ1-43-induced cell death ([3]; 10 nM polypeptide)	cell mortality (%) [1] [%]	effect on Aβ1-43-induced cell death ([3]; 10 μM polypeptide)	effect on Q79-induced cell death, synthetic polypeptide [6]	effect on SOD1 mutant-induced cell death, synthetic polypeptide [7]	further results
SEQ ID NO: 54: HNG with Cys at position 8 substituted with Arg (MAPRGFSRLLLLTGEIDLPVKRRA)	significant suppression activity	inhibited neuronal death	comparable to the original HNG polypeptide	suppressed cell death	–	–	–	–	–
SEQ ID NO: 48: HNG with Cys at position 8 substituted with Lys (MAPRGFSKLLLLTGEIDLPVKRRA)	significant suppression activity	inhibited neuronal death	comparable to the original HNG polypeptide	suppressed cell death	–	–	–	–	–
SEQ ID NO: 46: HNG with Cys at position 8 substituted with His (MAPRGFSHLLLLTGEIDLPVKRRA)	significant suppression activity	inhibited neuronal death	slight decrease in the cell death suppression activity	suppressed cell death	–	–	–	–	–
CC[C@H](C)[C@H](NC(=O)[C@H](CCC(=O)O)NC(=O)[C@H](CO)NC(=O)[C@@H](NC(=O)[C@H](CC(C)C)NC(=O)[C@H](CC(C)C)NC(=O)[C@H](CC(C)C)NC(=O)[C@H](CC(C)C)NC(=O)[C@H](CS)NC(=O)[C@H](CO)NC(=O)[C@H](Cc1ccccc1)NC(=O)CNC(=O)[C@H](CCCNC(=N)N)NC(=O)[C@@H]1CCCN1C(=O)[C@H](C)NC(=O)[C@@H](N)CCSC)[C@@H](C)O)C(=O)N[C@@H](CC(=O)O)C(=O)N[C@@H](CC(C)C)C(=O)N1CCC[C@H]1C(=O)N[C@H](C(=O)N[C@@H](CCCCN)C(=O)N[C@@H](CCCNC(=N)N)C(=O)N[C@@H](CCCNC(=N)N)C(=O)N[C@@H](C)C(=O)O)C(C)C [sHN]	extremely weak suppression	–	–	did not show any effect	14.4 ± 1.2	completely restored to a level observed under basal conditions	Extensive cell death	couldn't be suppressed	suppression of V642I APP-induced cell death ([1]; 10 μM polypeptide): dramatically suppressed; IC50 ([1]; 72 h): ~100 nM; concentration blocking neuronal death induced by the FAD genes ([2]; NL-APP, M146L PS-1, N141I PS-2): 1 µM; extracellular concentration at which neuronal death is suppressed ([2]; chemically synthesized polypeptide): ≥ 10 nM; concentration of maximal (saturation) suppression of neuronal death ([2]; four types of AD genes, listed as Humanin): about 10 μM; effect on cell damage (LDH released) by Aβ1-43 [4]: completely restored to a level observed under basal conditions; effect on toxic effect of etoposide [5]: could not prevent; effect on cell death by ecdysone-induced FAD genes, synthetic polypeptide [8]: significant suppressive effect
MAPRGFSALLLLTSEIDLPVKRRA [sHNA]	–	–	–	–	52.5 ± 3.0	did not show any effect	Extensive cell death	couldn't be suppressed	suppression of V642I APP-induced cell death ([1]; concentrations up to 100 μM): did not significantly suppress; antagonism of cell death by FAD genes ([2]; NL-APP, M146L PS-1, N141I PS-2, up to 100 μM): did not antagonize
ARGFSCLLLLTGEIDLP [SEQ ID NO: 25, ARGFSCLLLLTGEIDLP]	–	–	–	–	–	–	–	–	cell mortality ([3]; 25 μM Aβ1-43, 72 hours, 10 nM polypeptide, mean ±S.D.): 75.3±4.4%
